Measured values: paper PMC3914206

Columns and labels:
panel of 442 kinases [1] = molecular target: T1, panel of 442 kinases (Homo sapiens, UniProt P11362); format: binding; conditions: Compound Concentration 10 µM
T1 construct: purchased KINOMEscan
Source text: (§1) We assessed the selectivity of members of this scaffold using the KINOMEscan methodology across a near comprehensive panel of 442 kinases [[18,27]].

panel of 442 kinases [2] = molecular target: T2, panel of 442 kinases (Homo sapiens, UniProt O00329); format: binding; conditions: Compound Concentration 10 µM
T2 construct: purchased KINOMEscan
T2 sequence (O00329 1-1044): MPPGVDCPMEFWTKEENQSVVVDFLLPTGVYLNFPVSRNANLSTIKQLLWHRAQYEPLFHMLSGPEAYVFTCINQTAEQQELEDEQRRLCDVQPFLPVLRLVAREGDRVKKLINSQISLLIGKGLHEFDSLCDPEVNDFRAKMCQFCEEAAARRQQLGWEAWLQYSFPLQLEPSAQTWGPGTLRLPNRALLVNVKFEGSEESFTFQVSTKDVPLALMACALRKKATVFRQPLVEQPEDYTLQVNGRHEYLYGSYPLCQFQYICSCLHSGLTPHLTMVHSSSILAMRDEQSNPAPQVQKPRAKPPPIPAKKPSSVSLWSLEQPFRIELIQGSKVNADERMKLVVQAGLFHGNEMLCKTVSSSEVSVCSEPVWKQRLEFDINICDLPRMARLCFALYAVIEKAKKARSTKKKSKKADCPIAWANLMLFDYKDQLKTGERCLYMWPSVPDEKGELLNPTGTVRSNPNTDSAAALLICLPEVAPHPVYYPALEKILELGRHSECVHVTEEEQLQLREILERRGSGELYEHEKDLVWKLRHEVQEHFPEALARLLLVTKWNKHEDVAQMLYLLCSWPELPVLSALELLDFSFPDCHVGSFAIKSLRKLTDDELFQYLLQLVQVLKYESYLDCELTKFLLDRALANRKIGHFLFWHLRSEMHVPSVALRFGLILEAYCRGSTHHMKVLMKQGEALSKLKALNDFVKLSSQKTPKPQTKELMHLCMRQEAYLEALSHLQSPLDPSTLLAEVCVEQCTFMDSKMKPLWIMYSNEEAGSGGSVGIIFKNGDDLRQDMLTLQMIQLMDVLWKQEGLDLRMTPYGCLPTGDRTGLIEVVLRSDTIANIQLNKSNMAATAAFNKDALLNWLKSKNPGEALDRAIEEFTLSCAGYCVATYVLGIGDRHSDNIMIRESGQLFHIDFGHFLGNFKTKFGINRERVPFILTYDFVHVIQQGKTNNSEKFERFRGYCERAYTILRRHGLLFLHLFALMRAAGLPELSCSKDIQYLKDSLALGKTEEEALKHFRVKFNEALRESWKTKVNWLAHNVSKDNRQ
Source text: as §1

T1 sequence (P11362 22-822): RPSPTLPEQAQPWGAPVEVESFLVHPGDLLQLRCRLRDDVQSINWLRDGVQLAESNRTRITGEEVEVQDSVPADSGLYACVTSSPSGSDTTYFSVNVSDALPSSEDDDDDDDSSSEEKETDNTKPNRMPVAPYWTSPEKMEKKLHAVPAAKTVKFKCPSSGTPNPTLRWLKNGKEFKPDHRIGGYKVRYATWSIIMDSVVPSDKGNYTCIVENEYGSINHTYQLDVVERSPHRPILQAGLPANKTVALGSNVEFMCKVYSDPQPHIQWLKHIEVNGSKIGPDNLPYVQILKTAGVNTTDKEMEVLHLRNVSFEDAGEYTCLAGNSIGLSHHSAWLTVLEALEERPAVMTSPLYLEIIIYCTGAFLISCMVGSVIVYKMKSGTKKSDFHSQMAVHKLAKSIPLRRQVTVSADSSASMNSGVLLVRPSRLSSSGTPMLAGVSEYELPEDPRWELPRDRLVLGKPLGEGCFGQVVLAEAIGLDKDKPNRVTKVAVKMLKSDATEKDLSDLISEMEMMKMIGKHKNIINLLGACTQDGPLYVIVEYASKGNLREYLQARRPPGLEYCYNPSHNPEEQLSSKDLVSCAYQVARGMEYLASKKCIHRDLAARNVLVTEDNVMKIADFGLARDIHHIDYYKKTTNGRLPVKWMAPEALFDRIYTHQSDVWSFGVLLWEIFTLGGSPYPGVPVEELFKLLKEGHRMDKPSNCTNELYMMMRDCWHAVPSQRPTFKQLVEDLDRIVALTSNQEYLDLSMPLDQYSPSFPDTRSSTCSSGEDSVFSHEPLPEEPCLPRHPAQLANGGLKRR

COc1cc(C(=O)N2CCC(N3CCN(C)CC3)CC2)ccc1Nc1ncc2c(n1)N(C)c1ccccc1C(=O)N2C [15 (LRRK2-IN-1)]
KINOMEscan: FGFR1 (panel of 442 kinases [1]): 86
KINOMEscan: PIK3CD (panel of 442 kinases [2]): 62

COc1cc(C(=O)N2CCC(N3CCN(C)CC3)CC2)ccc1Nc1ncc2c(n1)N1CCc3cccc(c31)C(=O)N2C [Compound 24]
KINOMEscan: FGFR1 (panel of 442 kinases [1]): 83

COc1cc(C(=O)N2CCC(N3CCN(C)CC3)CC2)ccc1Nc1ncc2c(n1)N(C1CCCC1)c1ccccc1C(=O)N2C [Compound 25, 11-cyclopentyl-2-((2-methoxy-4-(4-(4-methylpiperazin-1-yl)piperidine-1-carbonyl)phenyl)amino)-5-methyl-5H-benzo[e]pyrimido[5,4-b][1,4]diazepin-6(11H)-one]
KINOMEscan: FGFR1 (panel of 442 kinases [1]): 100
KINOMEscan: PIK3CD (panel of 442 kinases [2]): 100

CCOc1cc(C(=O)N2CCC(N3CCN(C)CC3)CC2)ccc1Nc1ncc2c(n1)N(C1CCCC1)c1ccccc1C(=O)N2C [Compound 26]
KINOMEscan: FGFR1 (panel of 442 kinases [1]): 100
KINOMEscan: PIK3CD (panel of 442 kinases [2]): 91
